Measurements published in patent US20110201569A1, “Methods For Treating Myocardial Disorders” (priority 2009, published 2011).
“Also recorded” adds a separate entry of the source.

How the values were obtained:
Assay type in all cases: in vivo, mouse
C57BL/6 mice = test: Cardiac biometric parameters (left ventricular weight) three days after transverse aortic constriction (TAC) or sham operation
From the text: (§1) 11 to 13 week old male C57BL/6 mice were purchased from Charles River (Germany). Mice were housed in individually ventilated pathogen-free cages with free access to water and standard rodent chow. The animals were handled according to the principles of laboratory animal care (NIH publication No. 85-23, revised 1996), and animal procedures were approved by the local committee for animal care.
To allow for repetitive intravenous injections, a venous port was implanted. Mice were anesthetized with isoflurane 2.0 vol % (Forene®, Abbott GmbH, Germany). Body temperature was maintained at 37° C. The jugular vein was exposed and a catheter (outer diameter 0.64 mm, Dow Corning Europe, Wiesbaden, Germany) inserted into the vessel via a small incision. The catheter was secured with a silk thread and tissue adhesive (Histoacryl, Braun, Germany). Finally, the catheter was tunneled subcutaneously and connected to an extracutaneous port through an incision between scapulae.
The first injection was performed 5 min prior to TAC or sham-operation procedure (described below) and repeated 4, 8, 12, 24, 36, 48 and 60 hrs after surgery. Animals were randomly assigned into two groups, receiving either a tetrasodium salt of the compound of formula 1 (hereinafter “Eritoran tetrasodium”) or placebo. The catheter was flushed with 50 μl 0.9% NaCl before and 100 μl after each injection of 50 μl Eritoran tetrasodium (2.5 mg/ml vehicle; 5 mg/kg bodyweight/application; dosage adopted from Shimamoto et al., Circulation 2006, 114: 1270-1274) or placebo solution.
Treatment groups were separated into two subgroups, undergoing transverse aortic constriction (TAC) or sham operation. Surgery for TAC was achieved as published previously (see, e.g., Baumgarten et al., Circulation 2002, 105: 2192-2197 and Baumgarten et al., Basic Res Cardiol 2006, 101: 427-435). Mice were intubated in a supine position and mechanical ventilation was initiated (MiniVent 845, Hugo Sachs Elektronik, Germany). A left parasternal incision was performed. A suture was passed underneath the aorta and tied down on a 27 Gauge needle, which was immediately removed and allowed to achieve a standardised and previously validated decreased diameter of the aorta. For sham operation the suture was passed underneath the aorta without ligation. For analgesia, mice received a single intraperitoneal injection of 0.065 mg/kg BW buprenorphine.
Three days after TAC or sham operation, the impact on cardiac biometric parameters was investigated. Body weight was registered. Heart and lung were excised, prepared and immediately measured. Total heart weight, left ventricular weight as well as lung weight and tibia length were recorded. Ventricles were snap frozen in liquid nitrogen and kept at −80° C.
Statistics were calculated using Prism 4.05 (GraphPad Software Inc., CA, USA). All values are expressed as mean (M)±SEM. One-way ANOVA with Newman-Keuls post-hoc testing was performed for statistical analysis with the exception of TIMP and cytokine expression which were analysed with Kruskal-Wallis and Dunn's multiple comparison post-hoc testing Impact of TAC-Eritoran on IL-10 expression was analysed with Two-way ANOVA. Differences between experimental groups were considered to be significant with p<0.05.
Example 2 was completed in a manner similar to Example 1, with minor changes as described below.
With the consent of proper authority (LANUV), 12 week old male C57BL/6-mice were anesthetized with Isofluran (2.0 Vol. %) and a catheter was implanted into the right jugular vein. Afterwards, either transverse aortic constriction (TAC) or a sham operation was performed. In TAC animals, the aortic diameter was reduced by 70% with a 6-0 silk filament. Mice received either the compound of formula (I) or placebo i.v. 5 minutes prior to TAC/sham-operation and 6 h, 12 h, 24 h, 36 h, 48 h and 60 h after surgery. […]

[1] = test system: atrial natriuretic peptide (ANP); test: qRT-PCR of ANP mRNA in left ventricle after TAC/sham
Experimental: as §1
(§2) The first injection was performed 5 min prior to TAC or sham-operation procedure (described below) and repeated 4, 8, 12, 24, 36, 48 and 60 hrs after surgery. […]
(§3) Quantitative real-time PCR analysis was completed. […] RNA was dissolved in 100 μl of RNase-free water, and concentration was determined photometrically (absorbance at 260 nm) before storage at −80° C. […]
(§4) Real-time PCR was performed according to the manufacturer's protocol. […] Each sample was measured in triplicate wells and underwent 40 cycles of amplification on an ABI PRISM® Sequence Detection System (Applied Biosystems). CT values were determined with SDS Software 2.2 (Applied Biosystems) and relative quotients (RQ) were calculated following the ΔΔCT method (RQ target gene/GAPDH).
(§5) Statistics were calculated using Prism 4.05 (GraphPad Software Inc., CA, USA). All values are expressed as mean (M)±SEM. […]

[2] = test system: matrix metalloproteinase-2 (MMP-2); test: qRT-PCR of MMP-2 mRNA in left ventricle after TAC/sham
Experimental: as §1, §2, §3, §4, §5

IL-6 = test: qRT-PCR of IL-6 mRNA in left ventricle after TAC/sham
Experimental: as §1, §2, §3, §4, §5

[3] = Example 1, TAC vs sham-operated, 5 mg/kg i.v. per application, three days after surgery
[4] = Example 2, TAC treated vs TAC-placebo

SMILES: CCCCCC/C=C\CCCCCCCCCC(=O)N[C@H]1[C@H](OC[C@H]2O[C@H](OP(=O)([O-])[O-])[C@H](NC(=O)CC(=O)CCCCCCCCCCC)[C@@H](OCCCCCCCCCC)[C@@H]2O)O[C@H](COC)[C@@H](OP(=O)([O-])[O-])[C@@H]1OCC[C@@H](CCCCCCC)OC.[Na+].[Na+].[Na+].[Na+] [Eritoran tetrasodium]
- left ventricular weight/body weight (LVW/BW) (C57BL/6 mice; [3]): did not differ from sham-operated mice
- left ventricular weight/tibia length (LVW/TL) (C57BL/6 mice; [3]): did not differ from sham-operated mice
- left ventricular weight (LVW) (C57BL/6 mice; Example 1, TAC, 5 mg/kg i.v. per application, three days after surgery): 81.32 ± 4.21 mg
- cardiac hypertrophy after TAC (C57BL/6 mice; Example 1, TAC, 5 mg/kg i.v. per application, three days after surgery, 5 mg/kg): decreases cardiac hypertrophy after TAC; also recorded: diminished cardiac hypertrophy induced by pressure overload
- ANP mRNA expression ([1]; Example 1, TAC, vs TAC placebo, three days after surgery): markedly decreased BNP but not ANP expression
- MMP-2 mRNA level ([2]; Example 1, TAC vs sham within treated groups, three days after surgery): remained unchanged by aortic banding
- IL-6 mRNA level (IL-6; Example 1, TAC, three days after surgery, qRT-PCR, M ± SEM): 16.60 ± 7.55

SMILES: CCCCCC/C=C\CCCCCCCCCC(=O)N[C@H]1[C@H](OC[C@H]2O[C@H](OP(=O)(O)O)[C@H](NC(=O)CC(=O)CCCCCCCCCCC)[C@@H](OCCCCCCCCCC)[C@@H]2O)O[C@H](COC)[C@@H](OP(=O)(O)O)[C@@H]1OCC[C@@H](CCCCCCC)OC [compound of formula (I), α-D-Glucopyranose, 3-O-decyl-2-deoxy-6-O-[2-deoxy-3-O-[(3R)-3-methoxydecyl)-6-O-methyl-2-[[(−11Z)-1-oxo-11-octadecenyl)amino]-4-O-phosphono-β-D-glucopyranosyl]-2-[(1,3-dioxotetradecyl)amino]-1-(dihydrogen phosphate)]
- left ventricle weight (LVW) (C57BL/6 mice; Example 2, TAC, i.v. 5 min prior to and 6-60 h after surgery, three days after surgery): 81.32 ± 4.2 mg
- development of cardiac hypertrophy (C57BL/6 mice; Example 2, murine model of transverse aortic constriction (TAC)): prevents the development of cardiac hypertrophy
- ANP mRNA expression [1, 4]: elevated in TAC-placebo mice compared to sham and the TAC groups treated
- MMP-2 mRNA expression [2, 4]: higher in the TAC-placebo animals compared to the TAC groups treated
- IL-6 mRNA expression (IL-6; [4]): lower
